Data taken from ChEMBL document CHEMBL5465560, “Selectivity Literature for EUbOPEN Chemogenomic Library” (2024).

Tests used:
[1] = target: T1, Ephrin type-A receptor 1 (Homo sapiens) (UniProt P21709); assay: Selectivity interaction (KinomeScan (DiscoverX)) EUB0000607a EPHA1; settings: at 10 µM
T1 sequence (whole entry): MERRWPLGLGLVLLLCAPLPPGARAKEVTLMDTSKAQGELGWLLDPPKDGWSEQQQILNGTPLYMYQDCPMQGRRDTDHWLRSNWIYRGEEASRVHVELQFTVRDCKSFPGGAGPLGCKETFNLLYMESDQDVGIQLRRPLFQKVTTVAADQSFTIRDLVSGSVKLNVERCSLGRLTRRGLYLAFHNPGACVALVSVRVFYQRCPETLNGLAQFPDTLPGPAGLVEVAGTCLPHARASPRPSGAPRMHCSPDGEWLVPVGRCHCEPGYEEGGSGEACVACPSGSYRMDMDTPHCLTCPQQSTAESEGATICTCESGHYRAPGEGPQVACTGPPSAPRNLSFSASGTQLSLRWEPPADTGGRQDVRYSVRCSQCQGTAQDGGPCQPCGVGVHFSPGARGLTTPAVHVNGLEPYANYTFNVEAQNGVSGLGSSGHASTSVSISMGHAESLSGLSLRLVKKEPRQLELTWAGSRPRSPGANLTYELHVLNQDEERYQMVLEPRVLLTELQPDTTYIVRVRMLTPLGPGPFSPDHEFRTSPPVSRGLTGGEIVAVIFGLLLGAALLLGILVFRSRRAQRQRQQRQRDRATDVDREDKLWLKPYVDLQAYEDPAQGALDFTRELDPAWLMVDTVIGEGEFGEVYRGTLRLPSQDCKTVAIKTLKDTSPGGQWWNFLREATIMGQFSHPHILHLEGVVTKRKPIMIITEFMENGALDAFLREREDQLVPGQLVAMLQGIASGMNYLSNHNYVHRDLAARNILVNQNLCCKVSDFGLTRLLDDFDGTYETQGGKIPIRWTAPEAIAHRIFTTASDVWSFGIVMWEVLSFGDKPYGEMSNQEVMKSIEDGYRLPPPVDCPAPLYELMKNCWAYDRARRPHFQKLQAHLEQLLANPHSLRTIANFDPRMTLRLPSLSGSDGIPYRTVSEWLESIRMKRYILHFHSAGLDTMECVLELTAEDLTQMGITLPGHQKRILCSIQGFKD

[2] = target: Vasopressin V1a receptor (Homo sapiens) (UniProt P37288); assay: Selectivity interaction (Panel of kinases, GPCRs, ion channels and transporters (enzymatic assay)) EUB0000266bCl AVPR1A
Sequence of Vasopressin V1a receptor (Homo sapiens) (P37288 whole entry, looked up): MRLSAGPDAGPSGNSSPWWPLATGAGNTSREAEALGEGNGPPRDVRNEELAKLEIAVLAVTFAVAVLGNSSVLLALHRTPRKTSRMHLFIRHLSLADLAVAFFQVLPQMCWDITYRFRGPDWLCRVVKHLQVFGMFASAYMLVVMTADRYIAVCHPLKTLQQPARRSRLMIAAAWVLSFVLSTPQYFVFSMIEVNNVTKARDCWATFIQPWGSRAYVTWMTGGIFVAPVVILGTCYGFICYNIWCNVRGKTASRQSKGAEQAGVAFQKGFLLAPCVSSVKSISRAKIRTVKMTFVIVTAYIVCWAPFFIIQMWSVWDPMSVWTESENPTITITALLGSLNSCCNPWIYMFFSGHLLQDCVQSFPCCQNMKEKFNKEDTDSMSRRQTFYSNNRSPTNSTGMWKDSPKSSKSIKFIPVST

Aurora kinase B = Aurora kinase B (Homo sapiens, UniProt Q96GD4); settings: at 10 µM
Sequence of Aurora kinase B (Q96GD4 whole entry): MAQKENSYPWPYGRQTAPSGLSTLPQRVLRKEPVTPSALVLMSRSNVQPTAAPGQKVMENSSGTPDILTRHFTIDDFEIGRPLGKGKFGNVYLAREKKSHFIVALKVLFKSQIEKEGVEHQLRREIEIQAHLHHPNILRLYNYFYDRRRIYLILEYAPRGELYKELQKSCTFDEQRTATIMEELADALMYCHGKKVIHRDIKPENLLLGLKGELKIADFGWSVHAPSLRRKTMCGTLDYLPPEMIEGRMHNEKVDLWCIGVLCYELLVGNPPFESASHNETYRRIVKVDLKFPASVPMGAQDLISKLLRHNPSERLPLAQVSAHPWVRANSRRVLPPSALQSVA

[3] = target: Serine/threonine-protein kinase PAK 3 (Homo sapiens) (UniProt O75914); assay: Selectivity interaction (Kinase screening (Nanosyn)) EUB0000604a PAK3
Sequence of Serine/threonine-protein kinase PAK 3 (Homo sapiens) (O75914 whole entry, looked up): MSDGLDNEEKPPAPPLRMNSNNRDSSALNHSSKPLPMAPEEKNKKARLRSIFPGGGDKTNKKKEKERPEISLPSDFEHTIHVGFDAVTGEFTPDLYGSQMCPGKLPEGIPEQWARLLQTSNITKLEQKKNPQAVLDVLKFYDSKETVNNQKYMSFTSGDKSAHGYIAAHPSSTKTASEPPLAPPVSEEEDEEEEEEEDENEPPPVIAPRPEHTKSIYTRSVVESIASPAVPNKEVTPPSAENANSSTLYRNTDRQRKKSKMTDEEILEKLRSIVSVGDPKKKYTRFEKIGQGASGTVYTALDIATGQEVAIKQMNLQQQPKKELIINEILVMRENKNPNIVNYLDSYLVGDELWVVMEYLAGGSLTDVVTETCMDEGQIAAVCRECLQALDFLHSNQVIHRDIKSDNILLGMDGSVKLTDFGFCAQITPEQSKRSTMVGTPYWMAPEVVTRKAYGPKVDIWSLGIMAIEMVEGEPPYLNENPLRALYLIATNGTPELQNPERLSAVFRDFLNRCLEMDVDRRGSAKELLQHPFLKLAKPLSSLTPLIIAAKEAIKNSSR

[4] = target: Serine/threonine-protein kinase PAK 6 (Homo sapiens) (UniProt Q9NQU5); assay: Selectivity interaction (KinomeScan (DiscoverX)) EUB0000045b PAK6; settings: at 10 µM
Sequence of Serine/threonine-protein kinase PAK 6 (Homo sapiens) (Q9NQU5 whole entry, looked up): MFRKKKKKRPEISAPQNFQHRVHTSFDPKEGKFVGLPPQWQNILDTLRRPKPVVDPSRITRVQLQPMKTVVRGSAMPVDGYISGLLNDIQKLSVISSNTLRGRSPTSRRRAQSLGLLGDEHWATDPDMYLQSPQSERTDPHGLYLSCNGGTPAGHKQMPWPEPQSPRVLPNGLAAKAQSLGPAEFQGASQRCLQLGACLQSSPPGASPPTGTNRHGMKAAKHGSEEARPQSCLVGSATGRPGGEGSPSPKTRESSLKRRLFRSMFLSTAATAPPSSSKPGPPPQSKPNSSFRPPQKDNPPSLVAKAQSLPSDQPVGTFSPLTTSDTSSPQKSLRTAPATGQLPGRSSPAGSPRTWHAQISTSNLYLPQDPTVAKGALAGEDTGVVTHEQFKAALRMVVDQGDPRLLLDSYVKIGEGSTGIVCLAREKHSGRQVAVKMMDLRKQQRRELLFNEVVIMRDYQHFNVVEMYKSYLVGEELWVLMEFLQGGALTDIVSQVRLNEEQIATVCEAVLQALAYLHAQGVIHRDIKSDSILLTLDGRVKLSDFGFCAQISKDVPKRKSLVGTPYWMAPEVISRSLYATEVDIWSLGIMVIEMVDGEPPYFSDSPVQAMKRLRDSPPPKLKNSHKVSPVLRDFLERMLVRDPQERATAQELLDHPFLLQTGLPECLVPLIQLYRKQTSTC

[5] = target: Ribosomal protein S6 kinase alpha-6 (Homo sapiens, UniProt Q9UK32); assay: Selectivity interaction (KinomeScan (DiscoverX)) EUB0000092b RPS6KA6; settings: at 10 µM
Sequence of Ribosomal protein S6 kinase alpha-6 (Q9UK32 whole entry): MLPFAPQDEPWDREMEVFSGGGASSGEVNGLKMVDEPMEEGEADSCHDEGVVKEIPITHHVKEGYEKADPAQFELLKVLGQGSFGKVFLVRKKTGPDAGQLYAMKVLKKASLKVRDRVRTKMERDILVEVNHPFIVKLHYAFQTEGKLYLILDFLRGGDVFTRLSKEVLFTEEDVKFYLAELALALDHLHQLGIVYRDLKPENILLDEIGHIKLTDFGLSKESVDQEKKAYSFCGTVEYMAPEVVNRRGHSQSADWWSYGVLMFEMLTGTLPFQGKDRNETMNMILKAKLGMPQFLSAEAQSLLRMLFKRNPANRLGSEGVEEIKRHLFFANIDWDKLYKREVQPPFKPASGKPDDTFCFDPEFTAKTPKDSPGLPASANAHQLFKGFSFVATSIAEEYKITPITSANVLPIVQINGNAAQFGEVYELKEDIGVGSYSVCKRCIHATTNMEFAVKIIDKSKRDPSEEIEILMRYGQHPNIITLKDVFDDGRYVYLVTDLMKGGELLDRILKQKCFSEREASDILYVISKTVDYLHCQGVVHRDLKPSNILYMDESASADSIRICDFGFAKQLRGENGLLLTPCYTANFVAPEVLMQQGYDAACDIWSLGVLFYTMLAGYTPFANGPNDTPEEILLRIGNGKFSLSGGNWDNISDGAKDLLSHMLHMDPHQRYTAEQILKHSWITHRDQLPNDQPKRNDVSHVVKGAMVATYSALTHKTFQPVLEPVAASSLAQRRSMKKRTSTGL

[6] = target: T2, Serine/threonine-protein kinase D2 (Homo sapiens) (UniProt Q9BZL6); assay: Selectivity interaction (ActivX KiNativ screen (ex vivo kinase selectivity in human PBMCs)) EUB0001619a PRKD2; type: cell-based; settings: PBMC, at 1 µM
T2 sequence (whole entry): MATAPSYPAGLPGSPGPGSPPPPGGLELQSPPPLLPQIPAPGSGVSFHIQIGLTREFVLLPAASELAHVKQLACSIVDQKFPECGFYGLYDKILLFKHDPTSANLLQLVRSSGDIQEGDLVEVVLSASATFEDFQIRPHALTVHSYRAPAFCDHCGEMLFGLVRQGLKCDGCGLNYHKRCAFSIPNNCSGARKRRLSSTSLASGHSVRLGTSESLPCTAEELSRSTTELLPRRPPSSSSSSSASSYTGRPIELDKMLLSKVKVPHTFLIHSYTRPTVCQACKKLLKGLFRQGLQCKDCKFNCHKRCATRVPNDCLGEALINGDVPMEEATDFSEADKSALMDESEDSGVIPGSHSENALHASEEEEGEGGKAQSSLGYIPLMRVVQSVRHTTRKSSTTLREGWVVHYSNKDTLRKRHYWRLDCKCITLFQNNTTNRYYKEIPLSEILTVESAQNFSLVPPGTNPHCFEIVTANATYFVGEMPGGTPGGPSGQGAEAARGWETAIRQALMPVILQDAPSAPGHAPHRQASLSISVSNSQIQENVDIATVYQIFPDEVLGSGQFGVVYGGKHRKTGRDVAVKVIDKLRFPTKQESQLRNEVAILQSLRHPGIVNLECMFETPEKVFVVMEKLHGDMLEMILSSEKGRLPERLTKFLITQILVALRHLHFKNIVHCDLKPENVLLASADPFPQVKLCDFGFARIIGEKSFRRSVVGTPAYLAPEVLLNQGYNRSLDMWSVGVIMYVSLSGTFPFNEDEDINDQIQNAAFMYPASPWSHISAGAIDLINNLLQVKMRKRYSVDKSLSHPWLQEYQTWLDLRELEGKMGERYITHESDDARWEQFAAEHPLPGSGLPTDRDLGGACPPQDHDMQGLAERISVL

## CNC(=O)Nc1ccc(-c2nc(N3CC4CCC(C3)O4)c3cnn(C4CCC5(CC4)OCCO5)c3n2)cc1
[1]
  % of control: 81%

## CCn1c(-c2nc3cc(C(=O)N4CCCC(N)C4)ccc3n2C)cc2ccccc21 (configuration not stated)
[2]
  pXC50: < 4.3 M

## CCN(CC)CCCCNc1ncc2cc(-c3cc(OC)cc(OC)c3)c(NC(=O)NC(C)(C)C)nc2n1
Aurora kinase B
  % of control: 100%

## Cc1cnc(Nc2ccc(F)cc2Cl)nc1-c1c[nH]c(C(=O)N[C@H](CO)c2cccc(Cl)c2)c1
[3]
  % of inhibition: 3%

## C=CC(=O)Nc1cc(-n2c(=O)ccc3cnc4ccc(-c5ccc(NS(C)(=O)=O)cc5)cc4c32)ccc1C
[4]
  % of control: 100%

## CCC(=O)N1CCN(c2ccc(-n3c(=O)ccc4cnc5ccc(-c6cnc7ccccc7c6)cc5c43)cc2C(F)(F)F)CC1
[5]
  % of control: 86%

## N#Cc1cccc(-c2c[nH]c3ncnc(N4CCOCC4)c23)c1
[6]
  % of inhibition: -2%
